# Patent publication US20180346446A1, “IRE1 SMALL MOLECULE INHIBITORS” (QUENTIS THERAPEUTICS, INC., priority 2017, published 2018)
# Experiments:
# [1] = target: T1, IRE1a (Homo sapiens, UniProt O75460); assay: In vitro FRET assay (XBP1 RNA probe cleavage by IRE1a); assay type: biochemical; design: purchased SignalChem; conditions: 2 nM IRE1a protein
# Description: In vitro FRET assay was performed to evaluate the ability of select compounds to inhibit IRE1, the results of which are summarized in Table 3. To perform the in vitro FRET assay, 1× complete assay buffer (CAB; […], 50 mM sodium citrate pH 7.15, ImM magnesium acetate, 0.02% tween 20) was used to dilute SignalChem IRE1a protein to a final concentration of 2 nM. Selected compounds were serially diluted with DMSO in a non-binding black 384-well plate for a total of 15 ul in each well. 2 ul of the serially diluted compound or DMSO control were then added to new wells containing 98 ul of 1×CAB, for a total volume of 100 ul, 10 ul of which were then transferred to wells of a new plate. 5 ul of the diluted IRE1a was then added to each well. 5 ul of a […] XBP1 RNA probe was then added to each well. Fluorescence was then read over 30 minutes in kinetic mode (485/515 nm).
# Two RNA probes were used, XBP1 wildtype (SEQ ID NO: 2) which is able to be spliced by active IRE1a or XBP1 mutant (SEQ ID NO: 3) which is unable to be spliced. Each probe contained a 5′ 6-FAM modification and a 3′ IOWA Black FQ modification. […]
# [2] = target: T1, IRE1a; assay: IRE1a Endoribonuclease Nanoluciferase Assay (XBP1 luciferase reporter in 293T cells); assay type: cell-based; conditions: 293T cells transfected with XBP1 luciferase reporter, ER stressors +/- inhibitors
# Description: Compounds disclosed herein were assessed for disruption of IRE1 signaling using a IRE1a Endoribonuclease Nanoluciferase Assay. Briefly, 2.5×10^6 293T cells were seeded in a 10 cm^2 tissue culture plate. About 24 hours later, the cells were transfected with Effectene. In a 15 mL Tube, the following was added: 2 ug XBP1 luciferase reporter plasmid (PGK-Luc2-P2A-XBP1u-Nanoluciferase-PEST); 300 ul EC buffer; and 16 ul Enhancer, followed by incubation at room temp for 5 minutes. Next, 60 ul Effectene (Qiagen 301427) was added, followed by incubation at room temperature for 10 minutes. 2.6 mL cDMEM media was added. Old media was aspirated from the cells, followed by addition of 7 mL fresh media. Full transfection mixture was added dropwise to cells. Cells were incubated for 6 hours, followed by trypsinization, centrifugation and resuspension in 11 mL media. 100 uL of cells were plated per a well in a 96 well plate. A day later, ER stressors of choice +/− inhibitors were added. To harvest, media was aspirated from cells completely, then 50 uL 1× passive lysis buffer (Promega: E1941) was added per well and put on shaker (300 rpm) for 30 minutes at room temperature. Cells were centrifuged, and 15 uL sample per well was added to a new, opaque white 384 well plate (Corning 3570). 15 uL OneGlo (nanoluciferase kit, Promega N1630) was added. Plates were spun down, placed on shaker (300 rpm) for 10 minutes. Plates were read on luminometer, 1000 ms integration time per well. 15 uL Stop and Glo (nanoluciferase kit) was added. Plates were spun down, placed on shaker (300 rpm) for 10 minutes. Plates were read on luminometer, 1000 ms second integration time per well. Recordings are provided below in Table 4.
# T1 sequence (O75460 19-977): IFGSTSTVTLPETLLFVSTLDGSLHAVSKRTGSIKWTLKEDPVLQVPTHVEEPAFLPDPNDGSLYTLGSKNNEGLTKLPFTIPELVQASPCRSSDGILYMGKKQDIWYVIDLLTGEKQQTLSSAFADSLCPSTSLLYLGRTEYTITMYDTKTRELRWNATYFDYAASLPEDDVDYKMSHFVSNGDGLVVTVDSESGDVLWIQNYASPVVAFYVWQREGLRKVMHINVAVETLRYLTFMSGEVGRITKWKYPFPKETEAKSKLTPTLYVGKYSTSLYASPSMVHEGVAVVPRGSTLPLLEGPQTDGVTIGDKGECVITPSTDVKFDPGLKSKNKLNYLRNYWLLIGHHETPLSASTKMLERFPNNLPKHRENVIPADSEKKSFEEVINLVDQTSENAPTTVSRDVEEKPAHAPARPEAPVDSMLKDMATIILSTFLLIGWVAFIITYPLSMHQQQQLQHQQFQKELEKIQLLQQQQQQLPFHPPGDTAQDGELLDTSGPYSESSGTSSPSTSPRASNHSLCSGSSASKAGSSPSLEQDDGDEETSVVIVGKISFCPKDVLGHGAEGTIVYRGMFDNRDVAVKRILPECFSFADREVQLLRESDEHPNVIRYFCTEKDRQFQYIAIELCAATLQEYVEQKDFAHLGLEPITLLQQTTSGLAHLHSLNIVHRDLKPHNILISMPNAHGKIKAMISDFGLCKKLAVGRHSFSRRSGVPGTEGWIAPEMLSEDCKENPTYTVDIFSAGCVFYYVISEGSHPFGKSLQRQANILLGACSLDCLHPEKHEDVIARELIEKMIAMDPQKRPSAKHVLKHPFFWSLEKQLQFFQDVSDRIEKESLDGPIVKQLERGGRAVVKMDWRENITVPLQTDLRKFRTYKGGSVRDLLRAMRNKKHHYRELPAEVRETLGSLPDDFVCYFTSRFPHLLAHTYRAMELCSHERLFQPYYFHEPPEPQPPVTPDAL
SMILES,IC50 [1] [nM],EC50 [2] [nM]
CCc1cc(-c2ccc(NS(=O)(=O)c3ccccc3Cl)c(F)c2)cc2cnc(N[C@H]3CC[C@H](N4CCCC4)CC3)nc12 [88; Formic Acid],≤ 5,≤ 5
CCc1cc(-c2ccc(NS(=O)(=O)c3ccccc3Cl)c(F)c2)cc2cnc(N[C@H]3CCCNC3)nc12 [73; Formic Acid],≤ 5,≤ 5
CCc1cc(-c2ccc(NS(=O)(=O)c3ccccc3Cl)c(F)c2)cc2cnc(N[C@H]3CC4C[C@H](N)CC4C3)nc12 (stereo partly drawn) [82; Formic Acid],≤ 5,5 to 50
CCc1cc(-c2ncc(NS(=O)(=O)c3ccccc3Cl)nc2C)cc2cnc(N[C@H]3CC[C@H](N)CC3)nc12 [94; Formic Acid],≤ 5,≤ 5
COc1nc(NS(=O)(=O)c2ccccc2Cl)ccc1-c1cc(C(C)(F)F)c2nc(N[C@H]3CC[C@H](N)CC3)ncc2c1 [123; Formic Acid],≤ 5,≤ 5
CCc1cc(-c2cc(F)c(NS(=O)(=O)c3ccccc3Cl)cc2OC)cc2cnc(N[C@H]3CC[C@H](N(C)C)CC3)nc12 [120; Formic Acid],≤ 5,≤ 5
CCc1cc(-c2ccc(NS(=O)(=O)c3ccccc3OC)nc2OC)cc2cnc(N[C@H]3CC[C@H](N)CC3)nc12 [109; Formic Acid],≤ 5,≤ 5
N[C@H]1CC[C@H](Nc2ncc3cc(-c4cnc(NS(=O)(=O)c5ccccc5Cl)c(F)c4)ccc3n2)CC1 [54; Formic Acid],≤ 5,5 to 50
N[C@H]1CC[C@H](Nc2ncc3cc(-c4nnc(NS(=O)(=O)c5ccccc5Cl)s4)ccc3n2)CC1 [89; Formic Acid],≤ 5,> 100
CCc1cc(-c2cc(F)c(NS(=O)(=O)c3ccccc3Cl)cc2OC)cc2cnc(N[C@H]3CC[C@H](NC)CC3)nc12 [121; Formic Acid],≤ 5,≤ 5
CCc1cc(-c2ccc(NS(=O)(=O)c3ccccc3C)nc2C)cc2cnc(N[C@H]3CC[C@H](N)CC3)nc12 [112; Formic Acid],≤ 5,5 to 50
O=S(=O)(Nc1ccc(-c2ccc3nc(N[C@H]4CCCNC4)ncc3c2)cc1F)c1ccccc1Cl [76; Formic Acid],≤ 5,5 to 50
CCCc1cc(-c2cc(NS(=O)(=O)c3ccccc3Cl)nn2C)cc2cnc(N[C@H]3CC[C@H](N)CC3)nc12 [47; Formic Acid],≤ 5,5 to 50
"CCc1cc(-c2cnc(NS(=O)(=O)c3ccccc3Cl)cc2C)cc2cnc(N[C@H]3CC[C@H](N)CC3)nc12 [Compound 4, N-(5-(2-(((1r,4r)-4-aminocyclohexyl)amino)-8-ethylquinazolin-6-yl)-4-methylpyridin-2-yl)-2-chlorobenzenesulfonamide]",≤ 5,50 to 100
COc1nc(NS(=O)(=O)c2ccccc2C#N)ccc1-c1cc2cnc(N[C@H]3CC[C@H](N)CC3)nc2cc1C [102; Formic Acid],≤ 5,50 to 100
CCc1nc(NS(=O)(=O)c2ccccc2Cl)ccc1-c1cc(CC)c2nc(NC34CCC(N(C)C)(CC3)CC4)ncc2c1 [136; Formic Acid],≤ 5,≤ 5
NC12CCC(Nc3ncc4cc(-c5ccc(NS(=O)(=O)c6ccccc6Cl)c(F)c5)ccc4n3)(CC1)CC2 [81; Formic Acid],≤ 5,≤ 5
N[C@H]1CC[C@H](Nc2ncc3cc(-c4ccc(NS(=O)(=O)c5ccccc5Cl)c(F)c4F)ccc3n2)CC1 [56; Formic Acid],≤ 5,≤ 5
N[C@H]1CC2C[C@@H](Nc3ncc4cc(-c5ccc(NS(=O)(=O)c6ccccc6Cl)c(F)c5)ccc4n3)CC2C1 (stereo partly drawn) [85; Formic Acid],≤ 5,> 100
CCc1cc(-c2ccc(NS(=O)(=O)c3ccccc3Cl)c(F)c2)cc2cnc(N[C@H]3CC[C@H](NC)CC3)nc12 [60; Formic Acid],≤ 5,≤ 5
NC1CCCC(Nc2ncc3cc(-c4ccc(NS(=O)(=O)c5ccccc5Cl)c(F)c4)ccc3n2)C1 (stereo not drawn) [75; Formic Acid],≤ 5,> 100
